Data reported in ChEMBL document CHEMBL1201861, “Genomics of Drug Sensitity in Cancer screening data, Wellcome Trust Sanger Institute”.

How the values were obtained:
Assay in all cases: cells
Type in all cases: functional, cell-based, Homo sapiens
RPMI-8226 = conditions: Homo sapiens, RPMI-8226
Description: SANGER: Inhibition of human RPMI-8226 cell growth in a cell viability assay.

KINGS-1 = conditions: Homo sapiens, KINGS-1;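 further: cell viability assay measuring suppression of KINGS-1 cell growth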
Description: SANGER: Inhibition of human KINGS-1 cell growth in a cell viability assay.

NOMO-1 = conditions: Homo sapiens, NOMO-1;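 further: growth inhibition of human NOMO-1 cells measured by a cell viability assay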
Description: SANGER: Inhibition of human NOMO-1 cell growth in a cell viability assay.

ES4 = conditions: Homo sapiens, ES4;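 further: growth inhibition of human ES4 cells, read out by a cell viability assay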
Description: SANGER: Inhibition of human ES4 cell growth in a cell viability assay.

ACN = conditions: Homo sapiens, ACN;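 further: growth inhibition of the human ACN cell line, read out via cell viability testing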
Description: SANGER: Inhibition of human ACN cell growth in a cell viability assay.

RKO = conditions: Homo sapiens, RKO;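 further: growth inhibition of human RKO cells, read out with a cell viability assay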
Description: SANGER: Inhibition of human RKO cell growth in a cell viability assay.

MZ2-MEL = conditions: Homo sapiens, MZ2-MEL;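 further: growth inhibition of MZ2-MEL cells read out with a cell viability assay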
Description: SANGER: Inhibition of human MZ2-MEL cell growth in a cell viability assay.

GI-ME-N = conditions: Homo sapiens, GI-ME-N;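 further: growth inhibition of human GI-ME-N cells, read out with a cell viability assay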
Description: SANGER: Inhibition of human GI-ME-N cell growth in a cell viability assay.

NCI-H446 = conditions: Homo sapiens, NCI-H446;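 further: growth inhibition of NCI-H446 cells determined by a cell viability assay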
Description: SANGER: Inhibition of human NCI-H446 cell growth in a cell viability assay.

TE-10 = conditions: Homo sapiens, TE-10;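 further: growth inhibition of TE-10 cells, measured by a cell viability assay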
Description: SANGER: Inhibition of human TE-10 cell growth in a cell viability assay.

LC-2-ad = conditions: Homo sapiens, LC-2-ad;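 further: growth inhibition of human LC-2-ad cells, read out with a cell viability assay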
Description: SANGER: Inhibition of human LC-2-ad cell growth in a cell viability assay.

ES6 = conditions: Homo sapiens, ES6;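 further: growth inhibition of human ES6 cells, read out with a cell viability assay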
Description: SANGER: Inhibition of human ES6 cell growth in a cell viability assay.

CW-2 = conditions: Homo sapiens, CW-2;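 further: growth inhibition of CW-2 cells, read out by a cell viability assay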
Description: SANGER: Inhibition of human CW-2 cell growth in a cell viability assay.

A101D = conditions: Homo sapiens, A101D;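 further: growth inhibition of the cell line, measured with a viability assay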
Description: SANGER: Inhibition of human A101D cell growth in a cell viability assay.

KARPAS-45 = conditions: Homo sapiens, KARPAS-45;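 further: inhibition of cell line growth, read out through a viability assay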
Description: SANGER: Inhibition of human KARPAS-45 cell growth in a cell viability assay.

PSN1 = conditions: Homo sapiens, PSN1;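 further: suppression of growth of human PSN1 cells, read out by a cell viability assay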
Description: SANGER: Inhibition of human PSN1 cell growth in a cell viability assay.

KALS-1 = conditions: Homo sapiens, KALS-1;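 further: growth inhibition of KALS-1 cells, determined with a cell viability assay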
Description: SANGER: Inhibition of human KALS-1 cell growth in a cell viability assay.

NCI-H1648 = conditions: Homo sapiens, NCI-H1648;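 further: cell viability assay measuring inhibition of NCI-H1648 cell growth, from the Sanger screening data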
Description: SANGER: Inhibition of human NCI-H1648 cell growth in a cell viability assay.

TE-11 = conditions: Homo sapiens, TE-11;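 further: growth inhibition of human TE-11 cells, read out by a cell viability assay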
Description: SANGER: Inhibition of human TE-11 cell growth in a cell viability assay.

SBC-1 = conditions: Homo sapiens, SBC-1;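 further: cell viability assay measuring growth inhibition of the SBC-1 cell line, IC50 being the concentration that halves growth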
Description: SANGER: Inhibition of human SBC-1 cell growth in a cell viability assay.

KGN = conditions: Homo sapiens, KGN;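 further: growth inhibition of KGN cells, read out with a cell viability assay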
Description: SANGER: Inhibition of human KGN cell growth in a cell viability assay.

SCH = conditions: Homo sapiens, SCH;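 further: growth inhibition of human SCH cells, read out in a cell viability assay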
Description: SANGER: Inhibition of human SCH cell growth in a cell viability assay.

JVM-2 = conditions: Homo sapiens, JVM-2;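 further: growth inhibition of JVM-2 cells determined by a cell viability assay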
Description: SANGER: Inhibition of human JVM-2 cell growth in a cell viability assay.

ES7 = conditions: Homo sapiens, ES7;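 further: growth inhibition of cultured human ES7 cells, read out as cell viability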
Description: SANGER: Inhibition of human ES7 cell growth in a cell viability assay.

LB373-MEL-D = conditions: Homo sapiens, LB373-MEL-D;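 further: growth inhibition of the cell line, read out in a cell viability assay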
Description: SANGER: Inhibition of human LB373-MEL-D cell growth in a cell viability assay.

K562 = conditions: Homo sapiens, K562
Description: SANGER: Inhibition of human K-562 cell growth in a cell viability assay.

JVM-3 = conditions: Homo sapiens, JVM-3;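 further: growth inhibition of human JVM-3 cells, read out with a cell viability assay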
Description: SANGER: Inhibition of human JVM-3 cell growth in a cell viability assay.

Lu-65 = conditions: Homo sapiens, Lu-65;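 further: growth inhibition of Lu-65 cancer cells, read out by a cell viability assay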
Description: SANGER: Inhibition of human LU-65 cell growth in a cell viability assay.

TK-10 = conditions: Homo sapiens, TK-10;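 further: growth inhibition of TK-10 cells, read out in a cell viability assay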
Description: SANGER: Inhibition of human TK10 cell growth in a cell viability assay.

NB10 = conditions: Homo sapiens, NB10;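 further: growth inhibition of NB10 cells, read out by a cell viability assay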
Description: SANGER: Inhibition of human NB10 cell growth in a cell viability assay.

SW684 = conditions: Homo sapiens, SW684;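 further: growth inhibition of human SW684 cells, measured by a cell viability assay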
Description: SANGER: Inhibition of human SW684 cell growth in a cell viability assay.

MOLT-16 = conditions: Homo sapiens, MOLT-16;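 further: growth inhibition of human MOLT-16 cells, read out with a cell viability assay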
Description: SANGER: Inhibition of human MOLT-16 cell growth in a cell viability assay.

LB831-BLC = conditions: Homo sapiens, LB831-BLC;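 further: growth inhibition of LB831-BLC cells, read out with a cell viability assay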
Description: SANGER: Inhibition of human LB831-BLC cell growth in a cell viability assay.

KARPAS-299 = conditions: Homo sapiens, KARPAS-299
Description: SANGER: Inhibition of human KARPAS-299 cell growth in a cell viability assay.

NEC8 = conditions: Homo sapiens, NEC8;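 further: growth inhibition of human NEC8 cells, read out by a cell viability assay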
Description: SANGER: Inhibition of human NEC8 cell growth in a cell viability assay.

NMC-G1 = conditions: Homo sapiens, NMC-G1;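 further: growth inhibition of the NMC-G1 cell line, measured with a cell viability read-out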
Description: SANGER: Inhibition of human NMC-G1 cell growth in a cell viability assay.

NCI-H1581 = conditions: Homo sapiens, NCI-H1581;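 further: cell growth inhibition read out by a viability assay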
Description: SANGER: Inhibition of human NCI-H1581 cell growth in a cell viability assay.

NCI-H1650 = conditions: Homo sapiens, NCI-H1650;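 further: growth inhibition of human NCI-H1650 cells measured by a cell viability assay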
Description: SANGER: Inhibition of human NCI-H1650 cell growth in a cell viability assay.

P30-OHK = conditions: Homo sapiens, P30-OHK;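 further: growth inhibition of the P30-OHK cell line, read out with a cell viability assay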
Description: SANGER: Inhibition of human P30-OHK cell growth in a cell viability assay.

BT-474 = conditions: Homo sapiens, BT-474
Description: SANGER: Inhibition of human BT-474 cell growth in a cell viability assay.

SW872 = conditions: Homo sapiens, SW872;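 further: growth inhibition of SW872 cells, read out by a viability assay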
Description: SANGER: Inhibition of human SW872 cell growth in a cell viability assay.

LS-411N = conditions: Homo sapiens, LS-411N
LS-513 = conditions: Homo sapiens, LS-513
Description: SANGER: Inhibition of human LS-513 cell growth in a cell viability assay.

ES5 = conditions: Homo sapiens, ES5;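 further: growth inhibition of human ES5 cells, read out by a cell viability assay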
Description: SANGER: Inhibition of human ES5 cell growth in a cell viability assay.

KE-37 = conditions: Homo sapiens, KE-37;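 further: growth inhibition of KE-37 cells, read out with a cell viability assay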
Description: SANGER: Inhibition of human KE-37 cell growth in a cell viability assay.

EC-GI-10 = conditions: Homo sapiens, EC-GI-10
Description: SANGER: Inhibition of human EC-GI-10 cell growth in a cell viability assay.

KG-1 = conditions: Homo sapiens, KG-1;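 further: growth inhibition of KG-1 cells, read out by a cell viability assay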
Description: SANGER: Inhibition of human KG-1 cell growth in a cell viability assay.

KY821 = conditions: Homo sapiens, KY821;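 further: growth inhibition of human KY821 cells, read out by a cell viability assay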
Description: SANGER: Inhibition of human KY821 cell growth in a cell viability assay.

NOS-1 = conditions: Homo sapiens, NOS-1;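 further: growth inhibition of the human NOS-1 cell line, read out with a cell viability assay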
Description: SANGER: Inhibition of human NOS-1 cell growth in a cell viability assay.

OCCCNc1cc(-c2ccnc(Nc3cccc(Cl)c3)n2)ccn1
IC50 (RPMI-8226): 129 nM | IC50 (KINGS-1): 103 nM | IC50 (NOMO-1): > 256 nM | IC50 (ES4): 35.1 nM | IC50 (ACN): 165 nM | IC50 (RKO): 114 nM | IC50 (MZ2-MEL): 62.7 nM | IC50 (GI-ME-N): 105 nM | IC50 (NCI-H446): > 256 nM | IC50 (TE-10): 38.2 nM | IC50 (LC-2-ad): 16.6 nM | IC50 (ES6): 8.78 nM | IC50 (CW-2): > 256 nM | IC50 (A101D): 20.5 nM | IC50 (KARPAS-45): 104 nM | IC50 (PSN1): 15.2 nM | IC50 (KALS-1): 35.3 nM | IC50 (NCI-H1648): 189 nM | IC50 (TE-11): 34.2 nM | IC50 (SBC-1): > 256 nM | IC50 (KGN): 10.5 nM | IC50 (SCH): > 256 nM | IC50 (JVM-2): > 256 nM | IC50 (ES7): > 256 nM | IC50 (LB373-MEL-D): 209 nM | IC50 (K562): > 256 nM | IC50 (JVM-3): > 256 nM | IC50 (Lu-65): > 256 nM | IC50 (TK-10): 57 nM | IC50 (NB10): > 256 nM | IC50 (SW684): > 256 nM | IC50 (MOLT-16): > 256 nM | IC50 (LB831-BLC): 32.5 nM | IC50 (KARPAS-299): 29.2 nM | IC50 (NEC8): > 256 nM | IC50 (NMC-G1): 32.3 nM | IC50 (NCI-H1581): > 256 nM | IC50 (NCI-H1650): > 256 nM | IC50 (P30-OHK): > 256 nM | IC50 (BT-474): > 256 nM | IC50 (SW872): 26.6 nM | IC50 (LS-411N): 37.9 nM | IC50 (LS-513): > 256 nM | IC50 (ES5): > 256 nM | IC50 (KE-37): 81.8 nM | IC50 (EC-GI-10): > 256 nM | IC50 (KG-1): > 256 nM | IC50 (KY821): 90.5 nM | IC50 (NOS-1): 19.6 nM

C#Cc1cccc(Nc2ncnc3cc(OCCOC)c(OCCOC)cc23)c1 [ERLOTINIB]
IC50 (KINGS-1): > 2000 nM | IC50 (NOMO-1): > 2000 nM | IC50 (ES4): > 2000 nM | IC50 (ACN): > 2000 nM | IC50 (RKO): > 2000 nM | IC50 (MZ2-MEL): > 2000 nM | IC50 (GI-ME-N): > 2000 nM | IC50 (NCI-H446): > 2000 nM | IC50 (TE-10): > 2000 nM | IC50 (LC-2-ad): > 2000 nM | IC50 (ES6): > 2000 nM | IC50 (CW-2): > 2000 nM | IC50 (A101D): > 2000 nM | IC50 (PSN1): > 2000 nM | IC50 (KALS-1): > 2000 nM | IC50 (NCI-H1648): 40 nM | IC50 (KGN): > 2000 nM | IC50 (SCH): > 2000 nM | IC50 (JVM-2): > 2000 nM | IC50 (ES7): > 2000 nM | IC50 (LB373-MEL-D): > 2000 nM | IC50 (K562): > 2000 nM | IC50 (JVM-3): > 2000 nM | IC50 (Lu-65): > 2000 nM | IC50 (TK-10): 859 nM | IC50 (NB10): > 2000 nM | IC50 (SW684): > 2000 nM | IC50 (MOLT-16): 1930 nM | IC50 (LB831-BLC): > 2000 nM | IC50 (KARPAS-299): > 2000 nM | IC50 (NEC8): > 2000 nM | IC50 (NMC-G1): > 2000 nM | IC50 (NCI-H1581): > 2000 nM | IC50 (NCI-H1650): > 2000 nM | IC50 (P30-OHK): > 2000 nM | IC50 (BT-474): > 2000 nM | IC50 (SW872): > 2000 nM | IC50 (LS-411N): > 2000 nM | IC50 (LS-513): > 2000 nM | IC50 (ES5): > 2000 nM | IC50 (KE-37): > 2000 nM | IC50 (EC-GI-10): > 2000 nM | IC50 (KG-1): > 2000 nM | IC50 (NOS-1): > 2000 nM

CC[C@H](CO)Nc1nc(NCc2ccccc2)c2ncn(C(C)C)c2n1 [SELICICLIB]
IC50 (RPMI-8226): > 16000 nM | IC50 (KINGS-1): > 16000 nM | IC50 (NOMO-1): > 16000 nM | IC50 (ES4): > 16000 nM | IC50 (ACN): > 16000 nM | IC50 (RKO): > 16000 nM | IC50 (MZ2-MEL): > 16000 nM | IC50 (GI-ME-N): > 16000 nM | IC50 (NCI-H446): > 16000 nM | IC50 (TE-10): > 16000 nM | IC50 (LC-2-ad): > 16000 nM | IC50 (ES6): > 16000 nM | IC50 (CW-2): > 16000 nM | IC50 (A101D): > 16000 nM | IC50 (KARPAS-45): > 16000 nM | IC50 (PSN1): > 16000 nM | IC50 (KALS-1): > 16000 nM | IC50 (NCI-H1648): > 16000 nM | IC50 (SBC-1): > 16000 nM | IC50 (KGN): > 16000 nM | IC50 (SCH): > 16000 nM | IC50 (JVM-2): > 16000 nM | IC50 (ES7): > 16000 nM | IC50 (LB373-MEL-D): > 16000 nM | IC50 (K562): > 16000 nM | IC50 (JVM-3): > 16000 nM | IC50 (Lu-65): > 16000 nM | IC50 (TK-10): > 16000 nM | IC50 (NB10): > 16000 nM | IC50 (SW684): > 16000 nM | IC50 (MOLT-16): > 16000 nM | IC50 (LB831-BLC): 11600 nM | IC50 (KARPAS-299): > 16000 nM | IC50 (NEC8): > 16000 nM | IC50 (NMC-G1): > 16000 nM | IC50 (NCI-H1581): > 16000 nM | IC50 (NCI-H1650): > 16000 nM | IC50 (P30-OHK): > 16000 nM | IC50 (BT-474): > 16000 nM | IC50 (SW872): > 16000 nM | IC50 (LS-411N): > 16000 nM | IC50 (LS-513): > 16000 nM | IC50 (ES5): > 16000 nM | IC50 (KE-37): > 16000 nM | IC50 (EC-GI-10): > 16000 nM | IC50 (KG-1): > 16000 nM | IC50 (KY821): > 16000 nM | IC50 (NOS-1): > 16000 nM
